Tests used:
[1] = tested on: a variety of test species; test: Pre-emergence herbicidal activity (glasshouse, sprayed one day after sowing, evaluated after 13 days); assay type: in vivo; parameters: key: 5=total damage to plant; 0=no damage to plant; conditions: application pre-emergence, rate 1000 g/Ha, scale 0-5
Experimental: Seeds of a variety of test species were sown in standard soil in pots. After cultivation for one day (pre-emergence) under controlled conditions in a glasshouse (at 24/16° C., day/night; 14 hours light; 65% humidity), the plants were sprayed with an aqueous spray solution derived from the formulation of the technical active ingredient in acetone/water (50:50) solution containing 0.5% Tween 20 (polyoxyethelyene sorbitan monolaurate, CAS RN 9005-64-5). The test plants were then grown in a glasshouse under controlled conditions (at 24/16° C., day/night; 14 hours light; 65% humidity) and watered twice daily. After 13 days, the test was evaluated (5=total damage to plant; 0=no damage to plant).

[2] = tested on: a variety of test species; test: Post-emergence herbicidal activity (glasshouse, sprayed after 8 days cultivation, evaluated after 13 days); assay type: in vivo; parameters: key: 5=total damage to plant; 0=no damage to plant; conditions: rate 1000 g/Ha, scale 0-5
Experimental: Seeds of a variety of test species were sown in standard soil in pots. After 8 days cultivation (post-emergence) under controlled conditions in a glasshouse (at 24/16° C., day/night; 14 hours light; 65% humidity), the plants were sprayed with an aqueous spray solution derived from the formulation of the technical active ingredient in acetone/water (50:50) solution containing 0.5% Tween 20 (polyoxyethelyene sorbitan monolaurate, CAS RN 9005-64-5). The test plants were then grown in a glasshouse under controlled conditions (at 24/16° C., day/night; 14 hours light; 65% humidity) and watered twice daily. After 13 days, the test was evaluated (5=total damage to plant; 0=no damage to plant).

CCOc1cc(N2C(=O)C(Cl)=C(C)C2O)no1 (stereo not drawn) [A32]
2: Pre-emergence herbicidal damage score, ALOMY [1] | ALOMY (Alopecurus myosuroides) damage score, application post-emergence [2] | AMARE (Amaranthus retroflexus) damage score, application post-emergence [2] | SETFA (Setaria faberi) damage score, application post-emergence [2] | ZEAMX (Zea mays) damage score, application post-emergence [2]
3: Pre-emergence herbicidal damage score, ECHCG [1]
5: ABUTH (Abutilon theophrasti) damage score, application post-emergence [2] | ECHCG (Echinochloa crus-galli) damage score, application post-emergence [2]
4: Pre-emergence herbicidal damage score, ABUTH [1]
1: Pre-emergence herbicidal damage score, AMARE [1] | Pre-emergence herbicidal damage score, SETFA [1] | Pre-emergence herbicidal damage score, ZEAMX [1]

CCC(C)(CC#N)c1cc(N2C(=O)C(Cl)=C(C)C2O)no1 (stereo not drawn) [A59]
5: Pre-emergence herbicidal damage score, ABUTH [1] | Pre-emergence herbicidal damage score, ALOMY [1] | Pre-emergence herbicidal damage score, AMARE [1] | Pre-emergence herbicidal damage score, ECHCG [1] | Pre-emergence herbicidal damage score, SETFA [1] | Pre-emergence herbicidal damage score, ZEAMX [1] | ABUTH (Abutilon theophrasti) damage score, application post-emergence [2] | ALOMY (Alopecurus myosuroides) damage score, application post-emergence [2] | AMARE (Amaranthus retroflexus) damage score, application post-emergence [2] | ECHCG (Echinochloa crus-galli) damage score, application post-emergence [2] | SETFA (Setaria faberi) damage score, application post-emergence [2] | ZEAMX (Zea mays) damage score, application post-emergence [2]

CCCC1=C(Cl)C(=O)N(c2noc(C(C)C)c2C#N)C1O (stereo not drawn) [A69]
1: Pre-emergence herbicidal damage score, ECHCG [1] | Pre-emergence herbicidal damage score, SETFA [1] | ZEAMX (Zea mays) damage score, application post-emergence [2]
2: Pre-emergence herbicidal damage score, AMARE [1] | ALOMY (Alopecurus myosuroides) damage score, application post-emergence [2]
0: Pre-emergence herbicidal damage score, ABUTH [1] | Pre-emergence herbicidal damage score, ALOMY [1] | Pre-emergence herbicidal damage score, ZEAMX [1]
5: AMARE (Amaranthus retroflexus) damage score, application post-emergence [2] | ECHCG (Echinochloa crus-galli) damage score, application post-emergence [2] | SETFA (Setaria faberi) damage score, application post-emergence [2]
4: ABUTH (Abutilon theophrasti) damage score, application post-emergence [2]

CCCC1=C(Cl)C(=O)N(c2noc(C)c2C#N)C1O (stereo not drawn) [A70]
5: Pre-emergence herbicidal damage score, AMARE [1] | AMARE (Amaranthus retroflexus) damage score, application post-emergence [2] | ECHCG (Echinochloa crus-galli) damage score, application post-emergence [2] | SETFA (Setaria faberi) damage score, application post-emergence [2]
4: Pre-emergence herbicidal damage score, ECHCG [1]
2: ABUTH (Abutilon theophrasti) damage score, application post-emergence [2]
0: Pre-emergence herbicidal damage score, ABUTH [1]
3: Pre-emergence herbicidal damage score, SETFA [1] | ALOMY (Alopecurus myosuroides) damage score, application post-emergence [2]
1: Pre-emergence herbicidal damage score, ALOMY [1] | Pre-emergence herbicidal damage score, ZEAMX [1] | ZEAMX (Zea mays) damage score, application post-emergence [2]

CCCC1=C(Br)C(=O)N(c2noc(C(C)(C)C#N)c2C#N)C1OC(=O)CC (stereo not drawn) [A74]
4: Pre-emergence herbicidal damage score, ALOMY [1] | Pre-emergence herbicidal damage score, ZEAMX [1]
5: Pre-emergence herbicidal damage score, ABUTH [1] | Pre-emergence herbicidal damage score, AMARE [1] | Pre-emergence herbicidal damage score, ECHCG [1] | Pre-emergence herbicidal damage score, SETFA [1] | ABUTH (Abutilon theophrasti) damage score, application post-emergence [2] | ALOMY (Alopecurus myosuroides) damage score, application post-emergence [2] | AMARE (Amaranthus retroflexus) damage score, application post-emergence [2] | ECHCG (Echinochloa crus-galli) damage score, application post-emergence [2] | SETFA (Setaria faberi) damage score, application post-emergence [2] | ZEAMX (Zea mays) damage score, application post-emergence [2]

CC(=O)OC1C(C)=C(Cl)C(=O)N1c1cc(C(C)(C)C)on1 (stereo not drawn) [A75]
3: Pre-emergence herbicidal damage score, ZEAMX [1]
5: Pre-emergence herbicidal damage score, ABUTH [1] | Pre-emergence herbicidal damage score, AMARE [1] | ABUTH (Abutilon theophrasti) damage score, application post-emergence [2] | ALOMY (Alopecurus myosuroides) damage score, application post-emergence [2] | AMARE (Amaranthus retroflexus) damage score, application post-emergence [2] | ECHCG (Echinochloa crus-galli) damage score, application post-emergence [2] | SETFA (Setaria faberi) damage score, application post-emergence [2] | ZEAMX (Zea mays) damage score, application post-emergence [2]
4: Pre-emergence herbicidal damage score, ALOMY [1] | Pre-emergence herbicidal damage score, ECHCG [1] | Pre-emergence herbicidal damage score, SETFA [1]

Reference: patent US9936701B2, “Herbicidal compounds” (Syngenta Participations AG, priority 2013, dated 2018)
